Toxic doses and inconclusive results are not listed. No stated cut-off is given here; in the data, active means T/C of 150% or more; inactive means T/C below 125%.
Tested on: L1210 leukemia ip in BDF1 mice, survival T/C
Assay: NCI In Vivo Anticancer Drug Screen. Data for tumor model L1210 Leukemia (intraperitoneal) in B6D2F1 (BDF1) mice
Settings: endpoint: mean survival time, higher = longer survival
In short: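 Tumor was transplanted into mice, which were then dosed with test compound or vehicle alone. Survival was recorded for each group, and the treated figure was expressed relative to the control figure.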

[1] = dose: 100.0 mg/kg/injection, schedule: Q01DX009 (ip), vehicle: saline
[2] = dose: 100.0 mg/kg/injection, schedule: Q04DX003 (ip), vehicle: saline
[3] = dose: 200.0 mg/kg/injection, schedule: Q01DX009 (ip), vehicle: saline
[4] = dose: 200.0 mg/kg/injection, schedule: Q04DX003 (ip), vehicle: saline
[5] = dose: 100.0 mg/kg/injection, schedule: Q04DX003 (ip), vehicle: saline with Tween-80
[6] = dose: 200.0 mg/kg/injection, schedule: Q04DX003 (ip), vehicle: saline with Tween-80
[7] = dose: 400.0 mg/kg/injection, schedule: Q04DX003 (ip), vehicle: saline with Tween-80
[8] = dose: 100.0 mg/kg/injection, schedule: Q01DX009 (ip), vehicle: saline with Tween-80
[9] = dose: 200.0 mg/kg/injection, schedule: Q01DX009 (ip), vehicle: saline with Tween-80
[10] = dose: 50.0 mg/kg/injection, schedule: Q01DX001 (ip), vehicle: saline
[11] = dose: 100.0 mg/kg/injection, schedule: Q01DX001 (ip), vehicle: saline
[12] = dose: 200.0 mg/kg/injection, schedule: Q01DX001 (ip), vehicle: saline
[13] = dose: 400.0 mg/kg/injection, schedule: Q01DX001 (ip), vehicle: saline
[14] = dose: 100.0 mg/kg/injection, schedule: Q01DX009 (ip), vehicle: Klucel (hydroxypropylcellulose) (HPC)
[15] = dose: 200.0 mg/kg/injection, schedule: Q01DX009 (ip), vehicle: Klucel (hydroxypropylcellulose) (HPC)
[16] = dose: 400.0 mg/kg/injection, schedule: Q01DX009 (ip), vehicle: Klucel (hydroxypropylcellulose) (HPC)

Measured: T/C

O=c1nc(NC2OC(CO)C(O)C2O)ccn1C1OC(CO)C(O)C1O (stereo unspecified)
inactive: dose: 100.0 mg/kg/injection, schedule: Q01DX005 (ip), vehicle: saline 102 % of control | dose: 200.0 mg/kg/injection, schedule: Q01DX005 (ip), vehicle: saline 108 % of control

CCS(=O)(=O)CS(=O)(=O)Cc1ccccc1
inactive: dose: 75.0 mg/kg/injection, schedule: Q04DX003 (ip), vehicle: saline 94 % of control | dose: 150.0 mg/kg/injection, schedule: Q04DX003 (ip), vehicle: saline 95 % of control | dose: 300.0 mg/kg/injection, schedule: Q04DX003 (ip), vehicle: saline 95 % of control

O=[N+]([O-])c1cccc(P(=O)(c2cccc([N+](=O)[O-])c2)c2cccc([N+](=O)[O-])c2)c1
inactive: [1] 101 % of control | [2] 93 % of control | [3] 101 % of control | [4] 104 % of control | dose: 400.0 mg/kg/injection, schedule: Q01DX009 (ip), vehicle: saline 95 % of control | dose: 400.0 mg/kg/injection, schedule: Q04DX003 (ip), vehicle: saline 106 % of control

OC(CC(O)(C(F)(F)F)C(F)(F)F)c1cccs1 (stereo unspecified)
inactive: [5] 106 % of control | [6] 100 % of control | [7] 101 % of control

Oc1cccnc1CN1CCOCC1
inactive: [8] 96 % of control | [5] 97 % of control | [9] 89 % of control | [6] 108 % of control | dose: 400.0 mg/kg/injection, schedule: Q01DX009 (ip), vehicle: saline with Tween-80 96 % of control | [7] 100 % of control

Cc1ccccc1C=O
inactive: [10] 97 % of control | [11] 94 % of control | [12] 94 % of control | [13] 94 % of control

CCOC(=O)/C=C(\CC(=O)O)Nc1ccccc1
inactive: [11] 90 % of control | [12] 93 % of control | [13] 95 % of control

CN(CCO)C(=O)/C=C/c1ccc(O)cc1
inactive: dose: 50.0 mg/kg/injection, schedule: Q01DX009 (ip), vehicle: saline 95 % of control | [1] 95 % of control | [3] 101 % of control

O=C1C(=O)c2ccccc2C(O)=C1CN1CCC1
inactive: dose: 100.0 mg/kg/injection, schedule: Q01DX001 (ip), vehicle: saline with Tween-80 95 % of control | dose: 200.0 mg/kg/injection, schedule: Q01DX001 (ip), vehicle: saline with Tween-80 95 % of control

C=CCNP(=O)(OCC)OCC
inactive: dose: 12.5 mg/kg/injection, schedule: Q01DX009 (ip), vehicle: saline 101 % of control | dose: 12.5 mg/kg/injection, schedule: Q04DX003 (ip), vehicle: saline 104 % of control | dose: 25.0 mg/kg/injection, schedule: Q01DX009 (ip), vehicle: saline 87 % of control | dose: 25.0 mg/kg/injection, schedule: Q04DX003 (ip), vehicle: saline 104 % of control | dose: 50.0 mg/kg/injection, schedule: Q04DX003 (ip), vehicle: saline 104 % of control | [1] 104 % of control | [2] 101 % of control | [3] 109 % of control | [4] 115 % of control

Cc1cc(OC(=O)Nc2cccc(Cl)c2Cl)c(C(C)C)cc1Cl
inactive: [14] 97 % of control | [15] 94 % of control | [16] 100 % of control

C=C(Nc1ccc2ccccc2c1)S(=O)(=O)O
inactive: [14] 94 % of control | [15] 103 % of control | [16] 96 % of control

CCOC(=O)NC(C)(C)CN(CCO)C(=O)OCC
inactive: [14] 100 % of control | dose: 100.0 mg/kg/injection, schedule: Q04DX003 (ip), vehicle: Klucel (hydroxypropylcellulose) (HPC) 105 % of control | [15] 97 % of control | dose: 200.0 mg/kg/injection, schedule: Q04DX003 (ip), vehicle: Klucel (hydroxypropylcellulose) (HPC) 102 % of control | [16] 97 % of control | dose: 400.0 mg/kg/injection, schedule: Q04DX003 (ip), vehicle: Klucel (hydroxypropylcellulose) (HPC) 93 % of control

COC/C(C)=C/Cl
inactive: dose: 100.0 mg/kg/injection, schedule: Q01DX001 (ip), vehicle: acetone 102 % of control | dose: 200.0 mg/kg/injection, schedule: Q01DX001 (ip), vehicle: acetone 100 % of control | dose: 400.0 mg/kg/injection, schedule: Q01DX001 (ip), vehicle: acetone 96 % of control

COc1cccc(/C=C/c2nc3ccccc3nc2/C=C/c2cccc(OC)c2OC)c1OC
inactive: dose: 50.0 mg/kg/injection, schedule: Q01DX009 (ip), vehicle: Klucel (hydroxypropylcellulose) (HPC) 95 % of control | [14] 92 % of control | [15] 101 % of control

CCN(CC)Cc1cccc(Nc2cc(C)nc(/N=C(\N)Nc3ccc(Cl)c(Cl)c3)n2)c1
inactive: dose: 75.0 mg/kg/injection, schedule: Q01DX001 (ip), vehicle: other 98 % of control | dose: 150.0 mg/kg/injection, schedule: Q01DX001 (ip), vehicle: other 95 % of control | dose: 300.0 mg/kg/injection, schedule: Q01DX001 (ip), vehicle: other 95 % of control

c1ccc(C(=NC(c2ccccc2)c2ccccc2)c2ccccc2)cc1
inactive: [10] 98 % of control | [11] 98 % of control | [12] 96 % of control | [13] 98 % of control

N#C/C(=C1C=C/C(=N/O)C(Cl)=C/1)c1ccc(Cl)cc1
inactive: dose: 50.0 mg/kg/injection, schedule: Q01DX001 (ip), vehicle: carboxymethylcellulose (CMC) 96 % of control | dose: 100.0 mg/kg/injection, schedule: Q01DX001 (ip), vehicle: carboxymethylcellulose (CMC) 98 % of control | [5] 103 % of control | dose: 200.0 mg/kg/injection, schedule: Q01DX001 (ip), vehicle: carboxymethylcellulose (CMC) 93 % of control | [6] 97 % of control | dose: 400.0 mg/kg/injection, schedule: Q01DX001 (ip), vehicle: carboxymethylcellulose (CMC) 91 % of control | [7] 97 % of control

ON=C(c1ccccc1)c1ccccc1
inactive: [8] 101 % of control | [9] 105 % of control

O=C(O)CC1(C(=O)O)CC2CCC1C2 (stereo unspecified)
inactive: dose: 100.0 mg/kg/injection, schedule: Q01DX009 (ip), vehicle: carboxymethylcellulose (CMC) 91 % of control | dose: 100.0 mg/kg/injection, schedule: Q04DX003 (ip), vehicle: carboxymethylcellulose (CMC) 103 % of control | dose: 200.0 mg/kg/injection, schedule: Q01DX009 (ip), vehicle: carboxymethylcellulose (CMC) 94 % of control | dose: 200.0 mg/kg/injection, schedule: Q04DX003 (ip), vehicle: carboxymethylcellulose (CMC) 103 % of control | dose: 400.0 mg/kg/injection, schedule: Q01DX009 (ip), vehicle: carboxymethylcellulose (CMC) 92 % of control | dose: 400.0 mg/kg/injection, schedule: Q04DX003 (ip), vehicle: carboxymethylcellulose (CMC) 100 % of control
